# Test results taken from patent US20110217262A1, “Treatment of Ocular Surface Disorders by Increasing Conjunctival Vascular Permeability” (priority 2010, published 2011).
# B1: Angiopoietin-2: candidate stimulator of vascular permeability (protein, UniProt O15123 19-496, looked up)
# Angiopoietin-2: YNNFRKSMDSIGKKQYQVQHGSCSYTFLLPEMDNCRSSSSPYVSNAVQRDAPLEYDDSVQRLQVLENIMENNTQWLMKLENYIQDNMKKEMVEIQQNAVQNQTAVMIEIGTNLLNQTAEQTRKLTDVEAQVLNQTTRLELQLLEHSLSTNKLEKQILDQTSEINKLQDKNSFLEKKVLAMEDKHIIQLQSIKEEKDQLQVLVSKQNSIIEELEKKIVTATVNNSVLQKQQHDLMETVNNLLTMMSTSNSAKDPTVAKEEQISFRDCAEVFKSGHTTNGIYTLTFPNSTEEIKAYCDMEAGGGGWTIIQRREDGSVDFQRTWKEYKVGFGNPSGEYWLGNEFVSQLTNQQRYVLKIHLKDWEGNEAYSLYEHFYLSSEELNYRIHLKGLTGTAGKISSISQPGNDFSTKDGDNDKCICKCSQMLTGGWWFDACGPSNLNGMYYPQRQNTNKFNGIKWYYWKGSGYSLKATTMMIRPADF
# Tests used:
# [1] = system: epithelial corneal lesions in diabetic patients; details: prospective, randomized, masked clinical trial; cited from earlier work
# [2] = system: conjunctival blood vessels of rabbit eyes; assay: Evans blue dye assay of conjunctival vascular permeability; format: in vivo, New Zealand White rabbits
# Experimental: Method 1: Evans blue dye assay. […] Animals were anesthetized with 2-5% isofluorane gas administered via mask. The eyes were sterilized with 5% iodine (povidone iodine (HUMCO, Texarkana, Tex., USA) diluted to 5% in BSS (Alcon, Fort Worth, Tex., USA)) and 2-3 drops of 0.5% ophthalmic proparacaine (Alcon, Fort Worth, Tex., USA) was administered as a topical anesthetic. Right eyes (OD) received subconjunctival injections of 50 microliters of C-NOD in 100% DMSO. Left eyes (OS) received subconjunctival injections of 50 microliters of 100% DMSO. 40 mg/kg of Evans blue dye (Sigma-Aldrich, St. Louis, Mo., USA) was then injected into an ear vein. Eyes were photographed and tear samples were collected at 1, 2 and 3 days post injection. Tears were collected by insertion of 7 mm discs of Whatman 3M filter paper (Whatman, Inc., Piscataway, N.J., USA) under the lower eyelid for 2 minutes. The filter paper discs were stored in 200 microliters of a phosphate buffered saline solution […] at 5-10° C. Absorption at 620 nm was used to quantify Evans blue dye in tears.
# An initial test of the ability of a nitric oxide donor B-NOD (Bing, R. J., Biochem. Biophys. Res. Comm. (2000) 275, 350) to increase conjunctival vascular permeability was performed. Fifty microliters of 100 mg/ml B-NOD in DMSO was injected OD, while DMSO vehicle was injected OS. Some eyes received no injection. Vascular permeability was assessed using the Evans blue dye assay. […] The difference between B-NOD and C-NOD may be due to the shorter half-life predicted for B-NOD.
# rabbit eyes (tears) = assay: Total protein and serum albumin assay of tears; format: in vivo, New Zealand White rabbits
# Experimental: Prior to subconjunctival injection, tear samples were collected from the eyes of the rabbits. Tears were collected by simultaneous insertion of two 7 mm discs of Whatman 3M filter paper (Whatman, Inc., Piscataway, N.J., USA) under the lower eyelid for 2 minutes. The filter paper discs were stored in 200 microliters of a phosphate buffered saline solution containing 0.05% Tween and 0.02% sodium azide at 5-10° C. Animals were anesthetized with 2-5% isofluorane gas administered via mask. The eyes were sterilized with 5% iodine (povidone iodine (HUMCO, Texarkana, Tex., USA) diluted to 5% in BSS (Alcon, Fort Worth, Tex., USA)) and 2-3 drops of 0.5% ophthalmic proparacaine (Alcon, Fort Worth, Texan, USA) was administered as a topical anesthetic. Right eyes (OD) received subconjunctival injections of 50 microliters of C-NOD in 100% DMSO. Left eyes (OS) received subconjunctival injections of 50 microliters of 100% DMSO. Tear samples were collected at 1 hour, then every day for up to 5 days.
# Protein content of tears was assessed by two methods. First, total protein was measured using a Bio-Rad Protein Assay Kit (Bio-Rad Laboratories, Hercules, Calif., USA). Second, rabbit serum albumin was measured using an Assaypro Rabbit Albumin ELISA kit (Assaypro LLC, St. Charles, Mo., USA). Both kits were used according to the manufacturer's instructions. […]
# rabbit eyes = details: 1 day post-injection
# Experimental: Initial tests on some other candidate stimulators of vascular permeability was performed.
molecule,measurement,setting,value
hyaluronic acid,epithelial healing time,[1],7.1 days
O=C(Oc1cccc(CO[N+](=O)[O-])c1)c1ccccc1O [B-NOD],Evans blue dye in tears versus uninjected eyes,"[2]; 50 microliters of 100 mg/ml in DMSO, by 24 hours",This difference disappeared
same,Evans blue dye in tears versus uninjected eyes,"[2]; 50 microliters of 100 mg/ml in DMSO, six hours post-injection",more Evans blue dye than did uninjected eyes
same,Evans blue dye in tears versus vehicle injected eyes,"[2]; 50 microliters of 100 mg/ml in DMSO, throughout the experiment",about the same amount of Evans blue dye as did vehicle injected eyes
CCOC(=O)Oc1ccccc1C(=O)Oc1cccc(CO[N+](=O)[O-])c1 [C-NOD],presence of subconjunctival dark Evans blue dye (photographs),"[2]; 66 mg/ml subconjunctival, 24, 48 and 72 hours post injection, versus vehicle injected eyes",evident
same,Evans blue dye in tears versus DMSO vehicle injected eyes,"[2]; absorption at 620 nm, in most cases, especially at 48 hours",more Evans blue dye present in the tears
same,total protein content of tears,"rabbit eyes (tears); 10 or 20 mg/cc, 1 day post injection, relative to uninjected eyes, N=4",significantly increased protein content of tears
same,proportion of serum albumin in tears (albumin to total protein),"rabbit eyes (tears); each concentration, relative to vehicle injection, 1 hour and 5 days post-injection",increased
NCCc1c[nH]cn1 [Histamine],Injection,rabbit eyes,Trace
same,Mucous discharge,rabbit eyes,Trace
same,observable clinical response in the eyes,rabbit eyes; conditions not optimized,observable clinical response
NCCc1c[nH]c2ccc(O)cc12 [Serotonin],Chemosis,rabbit eyes,Trace
same,Injection,rabbit eyes,None
same,Mucous discharge,rabbit eyes,None
B1,Chemosis,rabbit eyes,None
same,Injection,rabbit eyes,None
same,Mucous discharge,rabbit eyes,None
